Measured values reported in patent US10292980B2, “GAPDH cascade inhibitor compounds and methods of use and treatment of stress induced disorders including mental illness” (THE JOHNS HOPKINS UNIVERSITY, priority 2012, dated 2019).

How the values were obtained:
[1] = tested on: GAPDH-Siah1 binding / nuclear translocation of GAPDH; assay: GAPDH nuclear cascade in cardiac myocytes exposed to ET1 (co-immunoprecipitation, immunostaining, fractionation); assay type: cell-based, rat
Method: Physiological analysis, histological analysis: Echocardiography and pressure-volume loop studies were performed as described previously (Takimoto et al., Nat. Med., 11, 214-222 (2005)). 10% formalin fixed heart samples were embedded in paraffin, sectioned and stained for myocyte size (WGA staining) and fibrosis (Masson Trichrome staining) as described previously (Zhang et al., J. Am. Coll. Cardiol., 56, 2021-2030 (2010)). Isolated adult cardiac myocyte or rat neonatal cardiac myocyte was fixed with 50% methanol/50% acetone and stained with antibodies against GAPDH (Millipore), sulphonated GAPDH or HA as previously described.
(§1) Rat neonatal cardiac myocyte culture: Rat neonatal cardiac myocytes (RNCM) were isolated from 1-2-day-old Sprague-Dawley rats, and cultured cells stimulated with 0.05 μM Endothelin-1, with or without 1 nM RR compound for 48 hours. Protein synthesis was assessed by [^3H]leucine incorporation. Adenoviral transfection of wild-type GAPDH and K227A mutant GAPDH was performed at 10-30 moi as previously described.
(§2) Protein and RNA analysis: Total RNA was isolated from cells or left ventricular myocardium with Trizol (Molecular Research Center, Inc, Cincinnati, Ohio) and analyzed by real-time polymerase chain reaction (PCR) with TaqMan probes (Applied Biosystems, Foster City, Calif.). Results were normalized to GAPDH or 18S RNA. Cell lysates or nuclear extracts were obtained from cultured myocytes or ventricular tissue, resolved by SDS-polyacrylamide gel electrophoresis, subjected to immunoblotting and imaged by chemiluminescence as previously described.
To test a role for the GAPDH-p300 signaling in heart hypertrophy, the Gq agonist ET1 was used as a trigger. ET1 is reported to elicit oxidative stress by activating NADPD oxidase and stress is known as a central contributor to cardiac hypertrophic response including pressure-load hypertrophy, as in the TAC model. Thus, cardiac myocytes were exposed to ET1 at 0.05 μM for about 48 hours and the effects on GAPDH signaling was examined. […]

TAC hearts [2] = assay: TAC chronic pressure-overload cardiac hypertrophy model, treatment from time of constriction; assay type: in vivo, mouse
Method: Cardiac animal models: All protocols were approved by Animal Care and Use Committee of the Johns Hopkins University. TAC was performed in C57/BL6 mice (Jackson Laboratory) as previously described in (Nat. Med., 11, 214-222 (2005), J. Clin. Invest., 119, 408-420 (2009), J. Am. Coll. Cardiol., 56, 2021-2030 (2010)). Physiological analysis, histological analysis: Echocardiography and pressure-volume loop studies were performed as described previously (Takimoto et al., Nat. Med., 11, 214-222 (2005)). 10% formalin fixed heart samples were embedded in paraffin, sectioned and stained for myocyte size (WGA staining) and fibrosis (Masson Trichrome staining) as described previously (Zhang et al., J. Am. Coll. Cardiol., 56, 2021-2030 (2010)). Isolated adult cardiac myocyte or rat neonatal cardiac myocyte was fixed with 50% methanol/50% acetone and stained with antibodies against GAPDH (Millipore), sulphonated GAPDH or HA as previously described. HAT activity assay, MEF2 activity assay, MAO activity assay, GAPDH assay: p300 HAT activity was measured using commercially available kit (Biovision), using immunoprecipitation with p300 antibody (Circulation 118, 934-946 (2008)). MEF2 activity was measured using luciferase reporter assay (Panomics). MAO activity assay was measured using commercially available kit (Peninsula Laboratory). GAPDH activity was measured as previously described in (Nat. Cell Biol., 7, 665-674 (2005)). PUMA mRNA expression was determined by real time RT-PCR using SYBR Green fluorescence on a LightCycler instrument (Roche Applied Science). Expression of the gene of interest was divided by the housekeeping gene glyceraldehyde-3-phosphate dehydrogenase (GAPDH) and presented as fold induction of control. Protein and RNA analysis: Total RNA was isolated from cells or left ventricular myocardium with Trizol (Molecular Research Center, Inc, Cincinnati, Ohio) and analyzed by real-time polymerase chain reaction (PCR) with TaqMan probes (Applied Biosystems, Foster City, Calif.). Results were normalized to GAPDH or 18S RNA. Cell lysates or nuclear extracts were obtained from cultured myocytes or ventricular tissue, resolved by SDS-polyacrylamide gel electrophoresis, subjected to immunoblotting and imaged by chemiluminescence as previously described. To understand the pathology underlying heart hypertrophy, chronic pressure overload induced by transverse aorta constriction (TAC) is used as an established experimental animal model. Heart hypertrophy is evident at 7 to 10 days after the constriction, which leads to irreversible functional defects in 9 weeks. In the present study, the TAC model was employed and identified GAPDH as a key conveyer of the pathological stress signal to nuclear p300, resulting in disruption of critical homeostasis in vivo. In the present invention, the significance of the nuclear GAPDH cascade in vivo has been shown. With this understanding there is also provided novel therapeutic methods of treatment of stress induced disorders, including, for example, cardiac hypertrophy, which are urgent and very important medical needs.

GAPDH-Siah1 binding = GAPDH-Siah1 binding (Homo sapiens, UniProt P04406); assay: in vitro binding of purified recombinant GAPDH and GST-Siah1 (GST-agarose pull down, western blot); settings: GAPDH pre-incubated with compound
GAPDH-Siah1 binding, sequence (P04406 whole entry): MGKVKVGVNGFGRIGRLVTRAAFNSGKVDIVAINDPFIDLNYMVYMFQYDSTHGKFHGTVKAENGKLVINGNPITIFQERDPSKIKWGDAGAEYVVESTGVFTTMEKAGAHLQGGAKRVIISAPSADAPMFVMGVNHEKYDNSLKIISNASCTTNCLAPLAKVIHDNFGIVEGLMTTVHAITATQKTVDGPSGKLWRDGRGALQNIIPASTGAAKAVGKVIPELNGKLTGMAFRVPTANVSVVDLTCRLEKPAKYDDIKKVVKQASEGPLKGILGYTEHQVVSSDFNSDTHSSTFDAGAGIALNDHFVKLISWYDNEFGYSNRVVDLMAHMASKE
Method: (§3) FIG. 4A-4D depict a deprenyl derivative compound of the present invention that blocks GAPDH-Siah1 binding. […] FIG. 4B is a graph depicting inhibition of GAPDH-Siah1 binding by the RR compound in vitro. GAPDH was pre-incubated with the RR compound, then GST-Siah1 was added and binding was assessed by GST-agarose pull down followed by western blotting. The graph represents quantification results of the blots from 6 experiments. FIG. 4C is a pair of graphs depicting in vitro MAO activity. FIG. 4D is a bar graph showing glycolytic activity in cultured rat neonatal cardiac cells exposed to 1 nM RR for 48 hours *p<0.05.
To test whether TAC elicits nuclear translocation of GAPDH and activates p300, a specific tool to intervene GAPDH nuclear translocation is needed. Several structural analogues of deprenyl that blocked GAPDH-Siah1 binding and the nuclear GAPDH cascade were previously screened (data not shown).

DN-DISC1 mice = assay: three chamber social novelty test in DN-DISC1 mice; assay type: in vivo, mouse
From the text: DN-DISC1 mice express a putative dominant-negative C-terminal truncated DISC1 under expression control of the α CaMKII promoter. Homozygous DN-DISC1 mice were created by systematic cross-breeding of heterozygotes followed by interbreeding of homozygotes at the Johns Hopkins School of Medicine. In the current studies only homozygous males were used. At 3 to 6 months of age, mice were transferred to the Neurogenetics and Behavior Center, Johns Hopkins University, for behavioral testing. They were housed three or four to a cage under a 12 hour light/dark cycle (lights on at 7:00 A.M to 7:00 P.M) and weighed between 25 and 35 grams prior to food deprivation.
Measurement of Social Novelty Test: Wt and DN-DISC1 mice were treated with RR compound or control starting at postnatal day 35 (0.25 mg/kg, i.p./day) and continuing throughout the three-chamber social interaction test in adulthood as described in Johnson et al., supra.
The inventors treated DN-DISC1 mice with RR starting at postnatal day 35 (0.25 mg/kg, i.p./day) and continuing throughout the three-chamber social interaction test in adulthood.

p300 HAT / MEF2 = assay: p300 acetylation and MEF2 luciferase reporter activity in cardiac myocytes treated with ET1; assay type: cell-based, rat
Method: as §1
(§4) HAT activity assay, MEF2 activity assay, MAO activity assay, GAPDH assay: p300 HAT activity was measured using commercially available kit (Biovision), using immunoprecipitation with p300 antibody (Circulation 118, 934-946 (2008)). MEF2 activity was measured using luciferase reporter assay (Panomics). MAO activity assay was measured using commercially available kit (Peninsula Laboratory). GAPDH activity was measured as previously described in (Nat. Cell Biol., 7, 665-674 (2005)). PUMA mRNA expression was determined by real time RT-PCR using SYBR Green fluorescence on a LightCycler instrument (Roche Applied Science). Expression of the gene of interest was divided by the housekeeping gene glyceraldehyde-3-phosphate dehydrogenase (GAPDH) and presented as fold induction of control.
(§5) Augmented p300 activity reportedly leads to cardiac hypertrophic response via activation of myocyte enhancer factor 2 (MEF2), a master transcriptional factor of mal-adaptive cardiac hypertrophy. Thus, acylation of p300, and activity of MEF2 was tested, together with several outcome measures for hypertrophy response. In cardiac myocytes treated with ET1, augmentation of p300 acylation (reflecting p300 HAT activity), an augmented activity of MEF2, and increases in cell surface area, protein synthesis assayed by ^3H-leucine uptake, and B-type natriuretic peptide (BNP) expression were observed (FIGS. 5D, E).

MAO-A/B = assay: MAO activity assay in cultured myocytes; assay type: cell-based, rat; settings: concentrations between 0.1 nM and 10^5 nM
Method: as §4
A major challenge to identify a compound that selectively blocks the nuclear GAPDH cascade is their potential inhibition of monoamine oxidases (MAOs), which deprenyl originally harbors. Thus, it was examined whether RR inhibits MAO-A/B in cultured myocytes and a dramatic contrast was observed between RR and deprenyl. There was no inhibition of MAOs by RR in a wide range of concentrations between 0.1 nM and 10^5 nM concentrations (FIG. 4C).

TAC hearts [3] = assay: TAC model, delayed RR treatment of pre-existing cardiac hypertrophy; assay type: in vivo, mouse
Method: Cardiac animal models: All protocols were approved by Animal Care and Use Committee of the Johns Hopkins University. TAC was performed in C57/BL6 mice (Jackson Laboratory) as previously described in (Nat. Med., 11, 214-222 (2005), J. Clin. Invest., 119, 408-420 (2009), J. Am. Coll. Cardiol., 56, 2021-2030 (2010)). Physiological analysis, histological analysis: Echocardiography and pressure-volume loop studies were performed as described previously (Takimoto et al., Nat. Med., 11, 214-222 (2005)). 10% formalin fixed heart samples were embedded in paraffin, sectioned and stained for myocyte size (WGA staining) and fibrosis (Masson Trichrome staining) as described previously (Zhang et al., J. Am. Coll. Cardiol., 56, 2021-2030 (2010)). Isolated adult cardiac myocyte or rat neonatal cardiac myocyte was fixed with 50% methanol/50% acetone and stained with antibodies against GAPDH (Millipore), sulphonated GAPDH or HA as previously described. Protein and RNA analysis: Total RNA was isolated from cells or left ventricular myocardium with Trizol (Molecular Research Center, Inc, Cincinnati, Ohio) and analyzed by real-time polymerase chain reaction (PCR) with TaqMan probes (Applied Biosystems, Foster City, Calif.). Results were normalized to GAPDH or 18S RNA. Cell lysates or nuclear extracts were obtained from cultured myocytes or ventricular tissue, resolved by SDS-polyacrylamide gel electrophoresis, subjected to immunoblotting and imaged by chemiluminescence as previously described. In most clinical settings, medication and treatment starts only after pathological changes occur at least to some extent.

GAPDH = molecular target: T1, GAPDH (Rattus norvegicus, UniProt P04797); assay: GAPDH glycolytic activity in cultured cardiac cells; assay type: cell-based; settings: cardiac myocytes, 1 nM, 48 hours
T1 construct: endogenous in cells; host or cells: cultured rat neonatal cardiac cells (from Sprague-Dawley rats)
T1 sequence (P04797 whole entry): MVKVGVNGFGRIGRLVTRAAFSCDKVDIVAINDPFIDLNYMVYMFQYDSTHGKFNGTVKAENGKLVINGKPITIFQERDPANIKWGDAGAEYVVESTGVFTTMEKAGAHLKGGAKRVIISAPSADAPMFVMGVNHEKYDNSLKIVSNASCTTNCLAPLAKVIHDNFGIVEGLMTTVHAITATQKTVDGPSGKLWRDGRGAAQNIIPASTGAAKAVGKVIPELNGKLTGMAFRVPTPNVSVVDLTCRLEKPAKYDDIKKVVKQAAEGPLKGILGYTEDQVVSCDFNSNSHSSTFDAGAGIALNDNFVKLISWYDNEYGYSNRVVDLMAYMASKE
Method: as §3
as §4, with “control. […]” for “control.”

[4] = tested on: rat neonatal cardiac myocytes; assay: hypertrophy response of rat neonatal cardiac myocytes to ET1; assay type: cell-based; settings: ET1-treated cardiac myocytes, 1 nM
Method: as §1, §2, §5

[5] = ET1 exposure, co-treatment with RR
[6] = 0.25 mg/kg/day i.p. from constriction, measured after 10th day (TAC10)
[7] = pressure volume loop analysis, RR versus vehicle treatment
[8] = ET1-treated cardiac myocytes, 1 nM

C#CCN1[C@H](C)Cc2ccccc2[C@H]1C [RR, (1R,3R)-1,3-dimethyl-2-propargyl-1,2,3,4-tetrahydroisoquinoline]
GAPDH-Siah1 binding augmented by ET1 ([1]; ET1 0.05 μM about 48 hours, co-administration of RR): normalized
nuclear translocation of GAPDH in response to ET1 ([1]; ET1 0.05 μM, co-treatment 1 nM): blocked
accumulation of sulphonated GAPDH in the nucleus [1, 5]: blocked
levels of nuclear GAPDH in TAC hearts (TAC hearts [2]; [6]): dramatically reduced
levels of p300 HAT activity in TAC hearts (TAC hearts [2]; [6]): dramatically reduced
cardiac hypertrophy remodeling assessed by cardiac myocyte cell size (TAC hearts [2]; 0.25 mg/kg/day i.p., TAC): ameliorated
cardiac hypertrophy remodeling assessed by fibrosis (TAC hearts [2]; 0.25 mg/kg/day i.p., TAC): ameliorated
cardiac hypertrophy remodeling assessed by heart weight (TAC hearts [2]; 0.25 mg/kg/day i.p., TAC): ameliorated
TAC-induced left ventricular dilatation (LV-EDD) (TAC hearts [2]; echocardiogram): significantly inhibited
TAC-induced reduction in Fractional Shortening (% FS) (TAC hearts [2]; echocardiogram): significantly inhibited
cardiac performance despite sustained pressure-overload stress (TAC hearts [2]; invasive hemodynamic study, pressure volume loop analysis): improvement of cardiac performance
pathological gene expression profile: down-regulation of calcium handling proteins (TAC hearts [2]; myocardial mRNA, TAC): significantly improved or normalized
pathological gene expression profile: fetal gene re-expression (BNP, β-MHC) (TAC hearts [2]; myocardial mRNA, TAC): significantly improved or normalized
diastolic relaxation properties (Tau) (TAC hearts [2]; [7]): significantly better
systolic function (dPdtmx) (TAC hearts [2]; [7]): significantly better
GAPDH-Siah1 interaction in vitro (GAPDH-Siah1 binding): blocked the interaction at nanomolar concentrations
social deficit (impaired social recognition) (DN-DISC1 mice; 0.25 mg/kg, i.p./day from postnatal day 35 through testing in adulthood): ameliorated the social deficit
sniffing preference for stranger versus familiar mouse (DN-DISC1 mice; DISC1 mice treated with RR (n=7), p<0.05): preferentially sniffed the stranger mouse over the familiar mouse
augmentation of p300 acylation (reflecting p300 HAT activity) (p300 HAT / MEF2; [8]): clearly blocked
augmented activity of MEF2 (p300 HAT / MEF2; [8]): clearly blocked
augmentation of p300 acetylation (reflecting p300 HAT activity) in the nucleus (p300 HAT / MEF2; [5]): blocked
inhibition of MAOs (MAO-A/B): no inhibition
expression profile of cardiac fetal gene (BNP) (TAC hearts [3]; delayed treatment, RR-treated versus vehicle group): significant improvement
cardiac myocyte size (terminal postmortem assessment) (TAC hearts [3]; treatment initiated 1 week after TAC, about two weeks): smaller
further LV mass increase from sustained pressure overload (TAC hearts [3]; treatment initiated 1 week after TAC, about two weeks of treatment, echocardiogram): significantly blocked
GAPDH glycolytic activity (GAPDH): did not show any influence
PUMA expression [4]: unchanged
increase in B-type natriuretic peptide (BNP) expression [4]: clearly blocked
increase in cell surface area [4]: clearly blocked
increase in protein synthesis assayed by 3H-leucine uptake [4]: clearly blocked
